The source of these data is patent US10857214B2, “Compositions and methods for treating gluten intolerance and disorders arising therefrom” (Codexis, Inc., priority 2015, dated 2020).

One data set has as its system 33mer from α-gliadin. In words: digestion of 33mer peptide by fluid fractions, MALDI-TOF. In kind it is biochemical. The method, then: Left: Silver-stain SDS-PAGE of fraction 1 containing nepenthesin, and MALDI spectrum of 33mer peptide processed with fraction 1. Right: Silver-stain SDS-PAGE of fraction 2 containing an unknown enzyme, and MALDI spectrum of 33mer peptides processed with fraction 2. MALDI of undigested 33mer in red, digested 33mer in black.
Two proteolytic components were isolated. Activity was retested against a 33mer from α-gliadin using MALDI-TOF. Fractions were also analyzed for protein content using MALDI-TOF (sinapinic acid as matrix), highlighting a single peak at 29 kDa. Fractions enriched in non-specific cleavage properties were further purified using gel filtration and retested for purity and for activity against 33mer.
Fluid protein concentrate was exchanged into 50 mM glycine and subjected to column chromatofocusing with fractionation. Fractions were analyzed for activity using MALDI-TOF (Sciex 5800 TOF/TOF, α-cyano-4-hydroxycinnamic acid as matrix). To test for activity, protein substrates were incubated with aliquots of column fractions at room temperature for 20 minutes and the digests analyzed by MALDI-TOF. Fractions enriched in proline cleavage were manually purified by reversed phase chromatography on Protein MacroTraps (Optimize Technologies). Enzyme was eluted and confirmed active against protein substrates.

The test system of data set [1] is crude gliadin digests treated with human transglutaminase-2. As to the kind of experiment: TG2-induced deamidation of gliadin digestion products. In kind it is biochemical. The conditions noted are these: 0.1 mg/mL human transglutaminase-2, pH 7.5, 37° C., 90 minutes. An excerpt:
Fractional deamidation quantified for all peptides from ion chromatogram intensities; data presented as a ratio, where the antigenic peptide deamidation is normalized to the non-antigenic peptide deamidation at the indicated protease concentration. Antigenic regions defined using the DQ2 criteria, inset table.
Whether enhanced digestion profiles would impact deamidation in antigenic regions was investigated. The recognition of immunodominant peptides by T cells is amplified when these peptides are deamidated in their core binding region by tissue transglutaminase 2 (TG2), particularly at position P4 or P6 in HLA DQ2 associated celiac disease. […] Crude gliadin digests were analyzed for the conversion of non-deamidated peptides to deamidated forms, and sorted all the peptides using a previously published algorithm for the identification of DQ2 binding motifs.
Supernatants from crude gliadin digests were treated with 0.1 mg/mL human transglutaminase-2 (R&D Systems, Cat. 4376-TG-050) in 100 mM Tris-HCl pH 7.5, 2 mM CaCl2 at 37° C. for 90 minutes, and quenched at 95° C. for 15 minutes, following a published protocol. Treated digests were analyzed by data-dependent LC-MS/MS as described above, allowing for variable N and Q deamidation in database searches. […]

The subject of a further data set is NOD DQ8 mice. As to the kind of experiment: transgenic NOD/HLA-DQ8 mouse model of gliadin sensitivity. The conditions noted are these: gliadin codigested with pepsin 100:1 and fluid enzyme 264:1 or nepenthesin II 100:1; pepsin alone is positive control.
In the next data set the test system is α-gliadin peptide 33mer. As to the kind of experiment: digestion profile of α-gliadin peptide 33mer under dilute conditions, LC-MS. In kind it is biochemical. Particulars: equivalent digestion conditions at optimum pH (2 for pepsin, 7 for MX). An excerpt:
Normalized relative abundance measured from LC-MS ion chromatograms, using caffeine as internal standard. Figure discloses SEQ ID NOS 88, 28, and 89-91, respectively, in order of appearance.
Using the pepsin-resistant 33mer, the evolution of peptide products was monitored under dilute conditions.

Data set [2] has as its system crude gliadin. As to the kind of experiment: crude gliadin slurry clarification (gravimetric analysis, turbidity at 595 nm). In kind it is biochemical, wheat. Particulars: 10 g/L crude gliadin slurry, pH 2.5, 37° C.; enzyme alone. The method, then: Inset: temporal profiling of slurry (left to right: 0, 30, 60, 90 min) using the protein-enriched fluid extract. […] Turbidity of the digested gliadin was monitored as absorbance at 595 nm ([…]). Black lines represent the turbidity of the gliadin slurry in the absence of protease. Measurement precision was <3% RSD (n=3). […] Data taken from FIGS. 8A-8C. Values reported as milligrams of gliadin per micromolar enzyme concentration per minute digestion time. […] Digest progress was monitored by gravimetric analysis, optical transmission, SDS-PAGE and mass spectrometry. […] For monitoring with optical transmission, digestion reactions were conducted in 96-well plate with ≥3 replicates of each reaction condition, and turbidity monitored at 595 nm at 37° C. every 2 minutes, for 90 minutes (SpectraMax plate reader, Molecular Devices). […] An aliquot of the reaction mixture was analyzed on an 8% SDS-PAGE gel. The remaining amount was centrifuged and the supernatant was analyzed by mass spectrometry.

For data set [3], the system named is crude gliadin. In words: SDS-PAGE and proteomic LC-MS/MS analysis of crude gliadin digests. It is filed as biochemical, Triticum aestivum. Here is the method:
Digestions at pH 2.5 and 37° C., for 90 min. All concentrations in μM. M: Molecular weight markers, and gliadin: total crude gliadin in the absence of protease. […] Peptide data from LC-MS/MS runs, with intensities obtained using Protein Deconvolution 1.0. […] A stock gliadin slurry of 20-50 mg/ml was prepared in acidic solution (100 mM glycine HCl, pH 2.5) and briefly sonicated to further break up large particulates and promote suspension. Digestions of 10 mg/mL gliadin slurries were initiated by addition of enzyme (pepsin, fluid enzymes or both) and held at 37° C. with gentle rotation. Digest progress was monitored by gravimetric analysis, optical transmission, SDS-PAGE and mass spectrometry. For gravimetric analysis, digests were quenched by boiling and treated with TCA/chloroform, followed by centrifugation to recover undigested or poorly digested protein. For monitoring with optical transmission, digestion reactions were conducted in 96-well plate with ≥3 replicates of each reaction condition, and turbidity monitored at 595 nm at 37° C. every 2 minutes, for 90 minutes (SpectraMax plate reader, Molecular Devices). The plate was shaken at medium speed briefly between measurements. The digests were quenched after 90 min reaction by boiling for 10 minutes (confirmed to have no impact on digestion profile, a posteriori). An aliquot of the reaction mixture was analyzed on an 8% SDS-PAGE gel. The remaining amount was centrifuged and the supernatant was analyzed by mass spectrometry. Supernatant was analyzed by data-dependent LC-MS/MS, in two 1-hour reversed phase gradient runs, configured for top-10 ion selection using CID in a high/low configuration. In one run, ion selection was restricted to 2+ and higher charge states. In the other run, ion selection was applied to 1+ charge states only. Data from both runs were combined and searched against all UniprotKB/Swiss-Prot entries for gliadin and glutenin from Triticum aestivum (25 proteins), using Mascot v2.3, configured for non-specific digestions and filtered for peptide hits with p<0.05. For estimation of peptide size distribution, all LC-MS spectra were combined and deconvoluted in Protein Deconvolution v1.0, with appropriate settings. For label-free quantitative analysis using the subset of the digest identified in the database search, the hit list was combined with the raw data in Mass Spec Studio and used to generate a set of peptide ion chromatograms, integrated over all isotopes to determine a weight-average intensity for each peptide sequence identified.

Consider “pepsin: gastric enzyme (EC 3.4.23.1) used as control protease”, for which the “digestion of 33mer peptide derived from α-gliadin” value with 33mer from α-gliadin is recorded as “highly resistant to digestion”. In data set [1], the “peptide conversion (deamidation) in antigenic regions compared to non-antigenic regions” value is recorded as “over 5.5 times”. The “small intestinal CD3+ intraepithelial lymphocyte (IEL) counts” value with NOD DQ8 mice was “significant increases”. Moreover, the “hydrolysis of 33mer peptide” value with α-gliadin peptide 33mer was “Neither pepsin nor a bacterial prolyl endoprotease from Myxococcus xanthus (MX) were able to hydrolyse”. Also, in the data set with crude gliadin [2], the maximum clarification rate was determined as 0.3 mg/µM/min. Further, the “digestion of total protein of crude gliadin by SDS-PAGE” value with crude gliadin [3] (10 mg/ml gliadin, pH 2.5, 37° C., 90 min) is “could not be achieved”. Moreover, in the data set on crude gliadin [3] (10 mg/ml gliadin, pH 2.5, 37° C., 90 min, high concentrations of pepsin), the “detected digest product having a molecular weight greater than 4000 Da” value is listed as 25 wt %. Moreover, the “average peptide length, label-free, all peptide signals” value in the data set with crude gliadin [3] (10 mg/ml gliadin, pH 2.5, 37° C., 90 min, pepsin 5 μM, fluid extract 0.23 μM) is on record as 19.2 residues. In addition, in the data set on crude gliadin [3] (pepsin 5 μM, fluid protease 0.46 μM, co-digestion using these two concentrations), the “weighted average peptide length, identified peptides” value stood at 16.9 residues.
